Values of other authors as cited in patent publication US5766627A, “Multivescular liposomes with controlled release of encapsulated biologically active substances” (priority 1997, dated 1998).

How the values were obtained:
[1] = test system: strains of gram negative bacteria; settings: clinical, background statement
[2] = free amikacin, background statement
[3] = test system: strains of gram positive bacteria; settings: clinical, background statement

In the case of NCC[C@H](O)C(=O)N[C@@H]1C[C@H](N)[C@@H](O[C@H]2O[C@H](CN)[C@@H](O)[C@H](O)[C@H]2O)[C@H](O)[C@H]1O[C@H]1O[C@H](CO)[C@@H](O)[C@H](N)[C@H]1O [amikacin], the “activity against gram negative bacteria” value [1] is listed as “clinically significant activity”, the serum half-life [2] is listed as “two to three” and the “activity against gram positive bacteria” value [3] is listed as “clinically significant activity”.
